Patent US11584747B2, “Substituted pyridopyrimidinonyl compounds useful as T cell activators” (BRISTOL-MYERS SQUIBB COMPANY, priority 2019, dated 2023)
Like-named read-outs stand apart in the source and are kept apart here.

Experiments:
human DGKα [1] = biological target: T1, human DGKα (Homo sapiens (Human), UniProt P23743); assay: DGKα LIPGLO assay (extruded liposome substrate, ADP-Glo luminescence); format: biochemical; conditions: liposome (LIPGLO) assay; read-out: DGK alpha (liposome assay) IC50
human DGKζ = human DGKζ (Homo sapiens (Human), UniProt Q13574); assay: DGKζ LIPGLO assay (extruded liposome substrate, ADP-Glo luminescence); format: biochemical; conditions: liposome (LIPGLO) assay; read-out: DGK zeta (liposome assay) IC50
[2] = test system: human venous whole blood (IFN-γ); assay: Human whole blood IFN-γ assay; format: cell-based; conditions: human whole blood, anti-CD3 plus anti-CD28 stimulation, 24 hours, read-out: IFN-γ Whole Blood EC50
Procedure: Human venous whole blood (22.5 μL per well), obtained from healthy donors, was pre-treated with compounds for one hour at 37° C. in a humidified 95% air/5% CO2 incubator. The blood was stimulated with 2.5 μL anti-human CD3 and anti-CD28 mAb at a final concentration of 1 μg/mL each for 24 hours at 37° C. IFN-γ in the supernatants was measured using AlphLISA kit (Cat #AL217).

whole blood (pERK) = assay: pERK Whole Blood; format: cell-based
human DGKα [3] = biological target: T1, human DGKα; assay: DGKα ADPGLO assay (detergent/lipid micelle substrate); format: biochemical; conditions: ADPGLO assay; read-out: DGK alpha ADPGLO IC50
Procedure: DGK Alpha ADPGLO (Truncated) IC50 (uM)
The detergent/lipid micelle was prepared by combining 15 g phosphatidylserine (Avanti 840035P) and 1 g diacylglycerol (8008110) and dissolving into 150 mL chloroform in a 2 L round bottom flask. Chloroform was removed under high vacuum by rotary evaporation. […] The lipid/detergent solution was split into 5 mL aliquots and stored at −80° C.

human DGKζ, sequence (Q13574 other isoform, or with tags, fused parts or gaps): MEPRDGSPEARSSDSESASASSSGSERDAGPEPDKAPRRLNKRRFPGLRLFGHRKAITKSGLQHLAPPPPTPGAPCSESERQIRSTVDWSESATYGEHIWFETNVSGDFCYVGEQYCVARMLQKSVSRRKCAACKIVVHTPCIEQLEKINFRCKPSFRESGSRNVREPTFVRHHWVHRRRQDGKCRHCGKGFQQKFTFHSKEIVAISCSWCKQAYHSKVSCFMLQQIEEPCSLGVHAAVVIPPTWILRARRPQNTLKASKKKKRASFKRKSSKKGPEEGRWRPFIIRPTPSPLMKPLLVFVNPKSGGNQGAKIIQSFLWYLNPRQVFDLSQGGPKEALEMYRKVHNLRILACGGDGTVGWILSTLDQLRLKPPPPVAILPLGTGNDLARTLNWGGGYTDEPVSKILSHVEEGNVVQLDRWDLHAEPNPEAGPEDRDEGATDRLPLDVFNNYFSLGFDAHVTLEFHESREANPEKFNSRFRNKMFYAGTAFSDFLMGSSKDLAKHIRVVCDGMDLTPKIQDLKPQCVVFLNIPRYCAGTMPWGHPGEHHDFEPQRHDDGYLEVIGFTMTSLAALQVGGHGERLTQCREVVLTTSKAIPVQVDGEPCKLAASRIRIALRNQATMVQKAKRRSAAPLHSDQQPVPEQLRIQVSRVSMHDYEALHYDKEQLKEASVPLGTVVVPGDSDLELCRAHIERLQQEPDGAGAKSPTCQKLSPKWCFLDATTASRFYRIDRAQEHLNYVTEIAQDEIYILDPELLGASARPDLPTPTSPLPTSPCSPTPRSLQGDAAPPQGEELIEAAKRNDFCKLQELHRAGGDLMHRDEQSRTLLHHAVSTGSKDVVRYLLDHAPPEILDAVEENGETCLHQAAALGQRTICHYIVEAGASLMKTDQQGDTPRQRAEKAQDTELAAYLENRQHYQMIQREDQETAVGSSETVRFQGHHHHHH
T1 sequence (P23743 whole entry, looked up): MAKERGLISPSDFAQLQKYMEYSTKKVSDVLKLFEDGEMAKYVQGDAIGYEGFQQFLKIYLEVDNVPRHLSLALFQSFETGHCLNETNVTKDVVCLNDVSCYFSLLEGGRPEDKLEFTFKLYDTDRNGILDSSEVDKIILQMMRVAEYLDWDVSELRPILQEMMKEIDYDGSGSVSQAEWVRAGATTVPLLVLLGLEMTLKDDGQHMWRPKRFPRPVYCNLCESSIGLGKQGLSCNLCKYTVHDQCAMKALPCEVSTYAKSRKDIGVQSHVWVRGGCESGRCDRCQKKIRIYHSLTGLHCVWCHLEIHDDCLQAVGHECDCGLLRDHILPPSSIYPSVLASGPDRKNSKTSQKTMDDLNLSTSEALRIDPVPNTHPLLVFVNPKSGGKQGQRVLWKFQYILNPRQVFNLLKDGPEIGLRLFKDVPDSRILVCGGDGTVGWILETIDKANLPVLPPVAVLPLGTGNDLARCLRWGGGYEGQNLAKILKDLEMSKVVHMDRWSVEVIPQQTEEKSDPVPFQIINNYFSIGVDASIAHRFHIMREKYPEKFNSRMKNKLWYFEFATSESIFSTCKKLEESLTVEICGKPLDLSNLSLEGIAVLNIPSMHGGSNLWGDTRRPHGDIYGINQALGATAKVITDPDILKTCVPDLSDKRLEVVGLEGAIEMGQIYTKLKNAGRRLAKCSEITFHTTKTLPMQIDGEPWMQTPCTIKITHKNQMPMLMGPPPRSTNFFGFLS

| SMILES | IC50 (human DGKα [1]) [nM] | IC50 (human DGKζ) [nM] | EC50 ([2]; Homo sapiens, 24 h) [nM] | EC50 (whole blood (pERK)) [nM] | IC50 (human DGKα [3]) [nM] | EC50 [2] [nM] |
| --- | --- | --- | --- | --- | --- | --- |
| CC(c1ccc(C(F)(F)F)cc1)N1C[C@H](C)N(c2nc(=O)n(C)c3ccc(Cl)nc23)C[C@H]1CN=[N+]=[N-] (stereo partly drawn) [Example 402, 4-((2S,5S)-5-(Azidomethyl)-2-methyl-4-(1-(4-(trifluoromethyl)phenyl)ethyl)piperazin-1-yl)-6-chloro-1-methylpyrido[3,2-d]pyrimidin-2(1H)-one] | 49500 | 4760 | 1390 | 3670 |  |  |
| COC(=O)NC[C@@H]1CN(c2nc(=O)n(C)c3ccc(C#N)nc23)[C@@H](C)CN1C(C)c1ccc(C(F)(F)F)cc1 (stereo partly shown) [Example 405] | 13600 | 110 | 1190 | 2580 |  |  |
| CCC(c1ccc(OC)cc1)N1C[C@H](C)N(c2nc(=O)n(C)c3ccc(C#N)nc23)C[C@H]1CC (stereo partly drawn) [Example 305, 4-((2S,5R)-5-ethyl-4-(1-(4-methoxyphenyl)propyl)-2-methylpiperazin-1-yl)-1-methyl-2-oxo-1,2-dihydropyrido[3,2-d]pyrimidine-6-carbonitrile] |  | 1400 |  | 3670 | 62 | 11700 |
| CC(c1ccc(CN2CCC(F)(F)CC2)cc1)N1C[C@H](C)N(c2nc(=O)n(C)c3ccc(C#N)nc23)C[C@H]1C (stereo partly drawn) [Example 390, 4-((2S,5R)-4-(1-(4-((4,4-difluoropiperidin-1-yl)methyl)phenyl)ethyl)-2,5-dimethylpiperazin-1-yl)-1-methyl-2-oxo-1,2-dihydropyrido[3,2-d]pyrimidine-6-carbonitrile] |  | 180 |  | 20000 | 97 | 40 |
| CCC(c1ccc(OC(C)C)cc1)N1C[C@H](C)N(c2nc(=O)n(C)c3ccc(C#N)nc23)C[C@H]1CC (stereo partly drawn) [Example 334, 4-((2 S,5R)-5-ethyl-4-(1-(4-isopropoxyphenyl)propyl)-2-methylpiperazin-1-yl)-1-methyl-2-oxo-1,2-dihydropyrido[3,2-d]pyrimidine-6-carbonitrile] |  | 530 |  | 20000 | 460 | 730 |

Stronger by IC50 (human DGKζ), values ahead:

| IC50 (human DGKα [1]) [nM] | IC50 (human DGKζ) [nM] | EC50 ([2]; Homo sapiens, 24 h) [nM] | EC50 (whole blood (pERK)) [nM] | IC50 (human DGKα [3]) [nM] | EC50 [2] [nM] | SMILES |
| --- | --- | --- | --- | --- | --- | --- |
|  | 14 |  | 110 | 12 | 16 | CCC(c1ccc(OC)cc1)N1C[C@H](C)N(c2nc(=O)n(C)c3ccc(C#N)nc23)C[C@H]1CC (stereo partly drawn) [Example 304, 4-((2S,5R)-5-ethyl-4-(1-(4-methoxyphenyl)propyl)-2-methylpiperazin-1-yl)-1-methyl-2-oxo-1,2-dihydropyrido[3,2-d]pyrimidine-6-carbonitrile] |
|  | 39 |  | 890 | 62 | 34 | CCC(c1ccc(OCC2CC2)cc1)N1C[C@H](C)N(c2nc(=O)n(C)c3ccc(C#N)nc23)C[C@H]1CC (stereo partly drawn) [Example 308, 4-((2S,5R)-4-(1-(4-(cyclopropylmethoxy)phenyl)propyl)-5-ethyl-2-methylpiperazin-1-yl)-1-methyl-2-oxo-1,2-dihydropyrido[3,2-d]pyrimidine-6-carbonitrile] |
|  | 32 | 160 | 24 | 17 |  | CCC(c1nc(C2CC2)no1)N1C[C@H](CC)N(c2nc(=O)n(C)c3ccc(C#N)nc23)C[C@H]1CC (stereo partly drawn) [Example 363, 4-((2S,5R)-4-(1-(3-cyclopropyl-1,2,4-oxadiazol-5-yl)propyl)-2,5-diethylpiperazin-1-yl)-1-methyl-2-oxo-1,2-dihydropyrido[3,2-d]pyrimidine-6-carbonitrile] |
|  | 100 | 190 | 3320 | 13 |  | CC[C@H]1CN(C(c2ccc(F)cc2)c2noc(C3CC3)n2)[C@H](CC)CN1c1nc(=O)n(C)c2ccc(C#N)nc12 (single isomer, unassigned) [Example 371] |
|  | 43 |  | 240 | 12 | 130 | CC(c1ccc(CN2CCOC(C)(C)C2)cc1)N1C[C@H](C)N(c2nc(=O)n(C)c3ccc(C#N)nc23)C[C@H]1C (single isomer, unassigned) [Example 385] |
